Test results reported in patent US20220348572A1, “BRIDGED HETEROCYCLYL-SUBSTITUTED PYRIMIDINE COMPOUND, PREPARATION METHOD THEREFOR, AND PHARMACEUTICAL USE THEREOF” (The National Institutes of Pharmaceutical R&D Co., Ltd., priority 2019, published 2022).

How the values were obtained:
JAK1 kinase = target: T1, JAK1 kinase (Homo sapiens, UniProt P23458); test: In vitro inhibitory activity on JAK1 kinase (ADP-Glo Kinase Assay); type: biochemical; details: JAK1 kinase 4 nM, 1 mM ATP
T1 construct: purchased Invitrogen PV4744
How it was run: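 JAK1 (4 nM final) preincubated with compound 15 min at 25° C., then substrate mix (1 mM ATP, IRS1 0.05 mg/ml) added for 60 min at 25° C. ADP-Glo luminescence read-out; top concentration 10 μM, 3-fold, 10 points, duplicates; IC50 reported in ranged classes.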

[1] = tested on: IFN-2α-stimulated TYK2/JAK1-mediated pathway (pSTAT3); test: Inhibition of STAT3 signaling pathway of human whole blood (IFN-2α-induced pSTAT3, flow cytometry); type: cell-based
Method: Test Example 3: Inhibition Effect of the Compounds of the Present Invention on STAT3 Signaling Pathway of Human Whole Blood
Sample preparation: The compounds of the present invention and the control were dissolved in DMSO solvent respectively to formulate into 10 mM initial liquid. The maximum concentration of the compound was 10 μM, 3-fold dilution, 10 concentration gradients, and duplicate wells for each concentration gradient.
Experimental process: 20 μL of the compound of the present invention was added to a flow cytometer tube (BD, 352052) containing 180 μL anticoagulant sodium heparin. 20 μL PBS was added to the control. The sample was incubated at 37° C. for 30 min. 2 μL stimulating factor was added and then incubated at 37° C. for 20 min. 1 mL erythrocyte lysate was rapidly added, and the sample was repeatedly inverted 5-10 times or vortexed and then incubated at 37° C. for 10 min. The sample was centrifuged at 600 g for 6-8 min. The supernatant was discarded. The precipitate was vortexed until suspending. The cells were washed with 3 mL PBS and centrifuged at 600 g for 6-8 min. The supernatant was discarded. The precipitate was vortexed until suspending. 1 mL of membrane breaking solution was added, and the system was mixed gently, incubated on ice for 30 min, and centrifuged at 600 g for 6-8 min. The supernatant was discarded. The precipitate was vortexed until suspending. The cells were washed. 3 mL PBS was added. The system was centrifuged at 600 g for 6-8 min. The supernatant was discarded. The precipitate was vortexed untile suspending. The process was repeated twice. 100 μL PBS was added to each staining tube. IFN-2a was added for stimulation, and CD3 and pSTAT3 antibodies […] were added. The system was mixed well, protected from light and incubated at room temperature for 60 min. The cells were washed. 3 mL PBS was added. The system was centrifuged at 600 g for 6-8 min. The supernatant was discarded. The precipitate was vortexed until suspending. The precipitate was suspended in 150 μL in the dark for the flow cytometry analysis. The IC50 (half inhibitory concentration) of the compounds was obtained by using the following non-linear fitting equation:
Y=Bottom+(Top−Bottom)/(1+10^((Log IC50−X)*HillSlope));
X: Log value of the concentration of the compound;
Bottom: The minimum value, Top: The maximum value, HillSlope: Slope
The inhibition effect of by the compounds of the present invention on the IFN-2α-stimulated TYK2/JAK1-mediated pathway is shown in Table 3. IC50 value of 0-100 nM is shown as A, IC50 value of 100-300 nM is shown as B, IC50 value of 300-1000 nM is shown as C, IC50 value which is greater than 1000 nM is shown as D. NT means not tested.

TYK2 kinase = target: T2, TYK2 kinase (Homo sapiens, UniProt P29597); test: In vitro inhibitory activity on Tyk2 kinase (ADP-Glo Kinase Assay); type: biochemical; details: TYK2 kinase 4 nM, 1 mM ATP
T2 sequence (P29597 897-1187 limits assumed): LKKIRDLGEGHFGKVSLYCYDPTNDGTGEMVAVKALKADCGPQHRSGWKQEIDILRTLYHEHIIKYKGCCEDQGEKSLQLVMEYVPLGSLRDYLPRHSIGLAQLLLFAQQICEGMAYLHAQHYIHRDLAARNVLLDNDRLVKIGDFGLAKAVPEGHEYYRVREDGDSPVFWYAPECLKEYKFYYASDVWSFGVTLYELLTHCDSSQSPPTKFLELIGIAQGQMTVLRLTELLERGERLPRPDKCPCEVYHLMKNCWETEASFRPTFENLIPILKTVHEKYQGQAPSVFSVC
Method: Test Example 2: Determination of In Vitro Inhibitory Activity of the Compounds of the Present Invention on Tyk2 Kinase Experimental materials: TYK2 (Invitrogen, PV4790), ATP (Promega, V915B), ADP-Glo Kinase Assay (Promega, V9101), IRS1 (Signalchem, 140-58-1000). Sample preparation: The compounds of the present invention and the control product were dissolved in DMSO solvent respectively to formulate into 10 mM initial liquid. The maximum concentration of the compound was 10 μM, 3-fold dilution, 10 concentration gradients, and duplicate wells for each concentration gradient. Experimental process: 0.1 μL of the compound to be tested was transferred into a 384 reaction plate (PE, 6007290) via Echo and centrifuged at 1000 rpm/min for 1 min. 5 μL TYK2 kinase (final concentration of 4 nM) was transferred into the 384 reaction plate, which was then centrifuged at 1000 rpm/min for 1 min, and incubated at 25° C. for 15 min. 5 μL substrate mixture (1 mM ATP, IRS1 0.05 mg/ml, kinase buffer solution) was transferred into the 384 reaction plate, which was then centrifuged at 1000 rpm/min for 1 min, and incubated at 25° C. for 60 min. 10 μL ADP-Glo was transferred into the 384 reaction plate, which was then centrifuged at 1000 rpm/min for 1 min, and incubated at 25° C. for 40 min. 20 μL test solution was transferred into the 384 reaction plate, which was centrifuged at 1000 rpm/min for 1 min and incubated at 25° C. for 40 min. RLU (Relative luminescence unit) signal was read by using an Envision multifunctional plate reader. The signal intensity was used to characterize the degree of the kinase activity. […] IC50 value of 0-100 nM is shown as A, IC50 value of 100-300 nM is shown as B, IC50 value of 300-1000 nM is shown as C, and IC50 value which is greater than 1000 nM is shown as D. NT means not tested.

T1 sequence (P23458 866-1154 limits assumed): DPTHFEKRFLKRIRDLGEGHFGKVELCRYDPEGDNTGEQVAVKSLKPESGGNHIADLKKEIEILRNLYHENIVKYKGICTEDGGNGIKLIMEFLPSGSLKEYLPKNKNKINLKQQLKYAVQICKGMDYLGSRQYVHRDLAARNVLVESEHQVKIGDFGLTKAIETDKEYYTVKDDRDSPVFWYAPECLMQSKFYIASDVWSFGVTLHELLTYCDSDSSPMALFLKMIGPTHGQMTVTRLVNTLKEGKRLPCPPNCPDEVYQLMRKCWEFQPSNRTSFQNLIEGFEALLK

Row | Compound | IC50 (JAK1 kinase) [nM] | IC50 (TYK2 kinase) [nM] | IC50 [1] [nM]
1 | Cn1cc(Nc2nccc(C3=CC4CCC(C3)N4C(=O)NC3(C#N)CC3)n2)cn1 (stereo not shown) [Compound 54, N-(1-cyanocyclopropyl)-3-(2-((1-methyl-1H-pyrazol-4-yl)amino)pyrimidin-4-yl)-8-azabicyclo[3.2.1]oct-2-ene-8-carboxamide] | > 1000 |  | < 100
2 | Cn1cc(Nc2nccc(C3=CC4CCC(C3)N4C(=O)NCC#N)n2)cn1 (stereo not shown) [Compound 2, N-(cyanomethyl)-3-(2-((1-methyl-1H-pyrazol-4-yl)amino)pyrimidin-4-yl)-8-azabicyclo[3.2.1]oct-2-ene-8-carboxamide] | < 100 | < 100 | 
3 | Cn1cc(Nc2nccc(C3=CC4CCC(C3)N4C(=O)C3CC3F)n2)cn1 (stereo not shown) [Compound 51, (2-fluorocyclopropyl)(3-(2-((1-methyl-1H-pyrazol-4-yl)amino)pyrimidin-4-yl)-8-azabicyclo[3.2.1]oct-2-en-8-yl)methanone] | < 100 |  | < 100
4 | Cn1cc(Nc2nccc(C3=CC4CCC(C3)N4C(=O)C34CC(F)(C3)C4)n2)cn1 (stereo not shown) [Compound 74, (3-fluorobicyclo[1.1.1]pentan-1-yl)(3-(2-((1-methyl-1H-pyrazol-4-yl)amino)pyrimidin-4-yl)-8-azabicyclo[3.2.1]oct-2-en-8-yl)methanone] | > 1000 |  | 
5 | Cn1cc(Nc2ncc(F)c(C3=CC4CCC(C3)N4C(=O)[C@@H]3CC3(F)F)n2)cn1 (stereo partly drawn) [Compound 21, ((S)-2,2-difluorocyclopropyl)(3-(5-fluoro-2-((1-methyl-1H-pyrazol-4-yl)amino)pyrimidin-4-yl)-8-azabicyclo[3.2.1]oct-2-en-8-yl)methanone] | < 100 |  | 
6 | Cn1cc(Nc2nccc(C3=CC4CCC(C3)N4C(=O)C34CC(C(F)(F)F)(C3)C4)n2)cn1 (stereo not shown) [Compound 71, (3-(2-((1-methyl-1H-pyrazol-4-yl)amino)pyrimidin-4-yl)-8-azabicyclo[3.2.1]oct-2-en-8-yl)(3-(trifluoromethyl)bicyclo[1.1.1]pentan-1-yl)methanone] | > 1000 |  | 
7 | Cn1cc(Nc2ncc(Cl)c(C3=CC4CCC(C3)N4C(=O)NCC(F)(F)F)n2)cn1 (stereo not shown) [Compound 20, 3-(5-chloro-2-((1-methyl-1H-pyrazol-4-yl)amino)pyrimidin-4-yl)-N-(2,2,2-trifluoroethyl)-8-azabicyclo[3.2.1]oct-2-ene-8-carboxamide] | < 100 |  | 

Second part, led by results:

Row | IC50 (JAK1 kinase) [nM] | IC50 (TYK2 kinase) [nM] | Compound | IC50 [1] [nM]
8 | < 100 | < 100 | Cn1cc(Nc2ncc(F)c(C3=CC4CCC(C3)N4C(=O)NCC(F)(F)F)n2)cn1 (stereo not shown) [Compound 12, 3-(5-fluoro-2-((1-methyl-1H-pyrazol-4-yl)amino)pyrimidin-4-yl)-N-(2,2,2-trifluoroethyl)-8-azabicyclo[3.2.1]oct-2-ene-8-carboxamide] | 
9 | < 100 | < 100 | Cn1cc(Nc2ncc(F)c(C3=CC4CCC(C3)N4C(=O)NCC#N)n2)cn1 (stereo not shown) [Compound 11, N-(cyanomethyl)-3-(5-fluoro-2-((1-methyl-1H-pyrazol-4-yl)amino)pyrimidin-4-yl)-8-azabicyclo[3.2.1]oct-2-ene-8-carboxamide] | 
10 | < 100 |  | Cn1cc(Nc2ncc(Cl)c(C3=CC4CCC(C3)N4C(=O)[C@@H]3CC3(F)F)n2)cn1 (stereo partly drawn) [Compound 23, (3-(5-chloro-2-((1-methyl-1H-pyrazol-4-yl)amino)pyrimidin-4-yl)-8-azabicyclo[3.2.1]oct-2-en-8-yl)((S)-2,2-difluorocyclopropyl)methanone] | 
11 | 300 to 1000 |  | Cn1cc(Nc2ncc(C(F)(F)F)c(C3=CC4CCC(C3)N4C(=O)NCC(F)(F)F)n2)cn1 (stereo not shown) [Compound 25, 3-(2-((1-Methyl-1H-pyrazol-4-yl)amino)-5-(trifluoromethyl)pyrimidin-4-yl)-N-(2,2,2-trifluoroethyl)-8-azabicyclo[3.2.1]oct-2-ene-8-carboxamide] | 
12 | 100 to 300 |  | CC(C)n1cc(Nc2nccc(C3=CC4CCC(C3)N4C(=O)[C@@H]3CC3(F)F)n2)cn1 (stereo partly drawn) [Compound 46, ((S)-2,2-Difluorocyclopropyl)(3-(2-((1-isopropyl-1H-pyrazol-4-yl)amino)pyrimidin-4-yl)-8-azabicyclo[3.2.1]oct-2-en-8-yl)methanone] | 
13 | 100 to 300 |  | O=C([C@@H]1CC1(F)F)N1C2C=C(c3ccnc(Nc4cnn(C5CC5)c4)n3)CC1CC2 (stereo partly drawn) [Compound 36, (3-(2-((1-cyclopropyl-1H-pyrazol-4-yl)amino)pyrimidin-4-yl)-8-azabicyclo[3.2.1]oct-2-en-8-yl)((S)-2,2-difluorocyclopropyl)methanone] | 
14 | < 100 |  | Cn1cc(Nc2ncc(F)c(C3=C[C@@H]4CC[C@H](C3)N4C(=O)NCC(F)(F)F)n2)cn1 (single isomer, unassigned) [Compound 12-a] | 
15 | < 100 |  | Cc1cnc(Nc2cnn(C3COC3)c2)nc1C1=CC2CCC(C1)N2C(=O)NCC(F)(F)F (stereo not shown) [Compound 30, 3-(5-Methyl-2-((1-(oxetan-3-yl)-1H-pyrazol-4-yl)amino)pyrimidin-4-yl)-N-(2,2,2-trifluoroethyl)-8-azabicyclo[3.2.1]oct-2-ene-8-carboxamide] | 
16 | > 1000 |  | Cn1cc(Nc2nccc(C3=CC4CCC(C3)N4C(=O)C3CCOCC3)n2)cn1 (stereo not shown) [Compound 78] | 
17 | > 1000 |  | Cn1cc(Nc2nccc(C3=CC4CCC(C3)N4C(=O)N3CC(C#N)C3)n2)cn1 (stereo not shown) [Compound 10, 1-(3-(2-((1-methyl-1H-pyrazol-4-yl)amino)pyrimidin-4-yl)-8-azabicyclo[3.2.1]oct-2-ene-8-carbonyl)azetidine-3-nitrile] | 
